How the values were obtained:
Ba/F3 ERBB2 YVMA = Ba/F3 ERBB2 YVMA (Homo sapiens, UniProt P04626, DUP772-775, cells depend on it); test: Cell viability assay (CellTiter Glo) in Ba/F3 cells engineered to express ERBB2 YVMA; type: cell-based, mouse; details: Ba/F3 cells expressing human ERBB2 YVMA mutant, 72 hours, % viability, read-out: Ba/F3 ERBB2 YVMA IC50
How it was run: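 IL-3-independent mouse Ba/F3 line stably transduced with human ERBB2 YVMA, seeded at 3000 cells/well, exposed to serially diluted compound (≤0.1% DMSO) for 72 h at 37° C. ATP read by CellTiter Glo luminescence, normalised to DMSO and media-only controls; sigmoidal nonlinear regression fit.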

[1] = biological target: T1, phosphorylated EGFR (pEGFR) (Homo sapiens, UniProt P00533); test: Detection of phosphorylated EGFR (pEGFR) in EGF-stimulated A431 cells (AlphaLISA); type: cell-based; details: A431 cells (10% FBS), 4 hours incubation, EGF 30 ng/mL for 10 minutes
T1 construct: performed to measure phosphorylated EGFR levels using A431 cells; endogenous in cells; host or cells: A431
T1 sequence (P00533 25-1210): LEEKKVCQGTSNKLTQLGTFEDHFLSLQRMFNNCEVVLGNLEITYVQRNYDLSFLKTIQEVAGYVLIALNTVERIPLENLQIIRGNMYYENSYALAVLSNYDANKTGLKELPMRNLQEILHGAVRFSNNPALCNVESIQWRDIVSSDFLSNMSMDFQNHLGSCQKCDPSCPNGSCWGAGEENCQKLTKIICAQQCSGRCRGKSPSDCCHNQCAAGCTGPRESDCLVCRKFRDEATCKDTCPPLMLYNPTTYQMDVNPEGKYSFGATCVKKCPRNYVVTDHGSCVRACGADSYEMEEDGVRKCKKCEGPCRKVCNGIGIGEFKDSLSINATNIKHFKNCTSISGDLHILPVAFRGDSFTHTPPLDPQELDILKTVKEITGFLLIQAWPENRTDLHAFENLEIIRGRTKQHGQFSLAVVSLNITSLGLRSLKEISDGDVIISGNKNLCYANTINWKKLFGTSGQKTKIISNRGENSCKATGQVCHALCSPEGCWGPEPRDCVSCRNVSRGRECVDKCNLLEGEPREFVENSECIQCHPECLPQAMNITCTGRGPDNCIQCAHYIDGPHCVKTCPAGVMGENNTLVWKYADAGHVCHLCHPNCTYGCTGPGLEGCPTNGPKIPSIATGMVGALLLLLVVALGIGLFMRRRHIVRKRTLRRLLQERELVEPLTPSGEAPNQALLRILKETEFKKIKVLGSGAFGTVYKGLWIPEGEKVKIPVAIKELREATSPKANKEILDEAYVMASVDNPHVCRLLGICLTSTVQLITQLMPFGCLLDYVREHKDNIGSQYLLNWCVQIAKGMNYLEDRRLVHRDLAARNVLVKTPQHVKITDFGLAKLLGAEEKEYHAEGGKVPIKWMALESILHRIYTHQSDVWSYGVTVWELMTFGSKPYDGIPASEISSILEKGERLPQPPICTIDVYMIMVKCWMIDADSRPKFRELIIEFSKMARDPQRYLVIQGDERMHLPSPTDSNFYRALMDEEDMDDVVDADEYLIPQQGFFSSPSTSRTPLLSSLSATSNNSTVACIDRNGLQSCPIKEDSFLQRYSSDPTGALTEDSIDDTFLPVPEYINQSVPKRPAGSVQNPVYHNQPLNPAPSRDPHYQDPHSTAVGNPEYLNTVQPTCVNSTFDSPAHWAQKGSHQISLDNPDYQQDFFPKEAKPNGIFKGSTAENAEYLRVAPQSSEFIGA
How it was run: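 Cells in 10% FBS treated with compound 4 h at 37° C., then stimulated 10 min with 30 ng/mL EGF, lysed, and pEGFR measured by AlphaLISA. Inhibition normalized to DMSO and staurosporine controls; IC50 from four-parameter logistic fit.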

[2] = biological target: T2, phosphorylated ERBB2 (pERBB2) (Homo sapiens, UniProt P04626); test: Detection of phosphorylated ERBB2 (pERBB2) by ELISA in BT-474 cells; type: cell-based; details: four hour incubation with compound
T2 construct: endogenous in cells; host or cells: BT-474
T2 sequence (P04626 23-1255): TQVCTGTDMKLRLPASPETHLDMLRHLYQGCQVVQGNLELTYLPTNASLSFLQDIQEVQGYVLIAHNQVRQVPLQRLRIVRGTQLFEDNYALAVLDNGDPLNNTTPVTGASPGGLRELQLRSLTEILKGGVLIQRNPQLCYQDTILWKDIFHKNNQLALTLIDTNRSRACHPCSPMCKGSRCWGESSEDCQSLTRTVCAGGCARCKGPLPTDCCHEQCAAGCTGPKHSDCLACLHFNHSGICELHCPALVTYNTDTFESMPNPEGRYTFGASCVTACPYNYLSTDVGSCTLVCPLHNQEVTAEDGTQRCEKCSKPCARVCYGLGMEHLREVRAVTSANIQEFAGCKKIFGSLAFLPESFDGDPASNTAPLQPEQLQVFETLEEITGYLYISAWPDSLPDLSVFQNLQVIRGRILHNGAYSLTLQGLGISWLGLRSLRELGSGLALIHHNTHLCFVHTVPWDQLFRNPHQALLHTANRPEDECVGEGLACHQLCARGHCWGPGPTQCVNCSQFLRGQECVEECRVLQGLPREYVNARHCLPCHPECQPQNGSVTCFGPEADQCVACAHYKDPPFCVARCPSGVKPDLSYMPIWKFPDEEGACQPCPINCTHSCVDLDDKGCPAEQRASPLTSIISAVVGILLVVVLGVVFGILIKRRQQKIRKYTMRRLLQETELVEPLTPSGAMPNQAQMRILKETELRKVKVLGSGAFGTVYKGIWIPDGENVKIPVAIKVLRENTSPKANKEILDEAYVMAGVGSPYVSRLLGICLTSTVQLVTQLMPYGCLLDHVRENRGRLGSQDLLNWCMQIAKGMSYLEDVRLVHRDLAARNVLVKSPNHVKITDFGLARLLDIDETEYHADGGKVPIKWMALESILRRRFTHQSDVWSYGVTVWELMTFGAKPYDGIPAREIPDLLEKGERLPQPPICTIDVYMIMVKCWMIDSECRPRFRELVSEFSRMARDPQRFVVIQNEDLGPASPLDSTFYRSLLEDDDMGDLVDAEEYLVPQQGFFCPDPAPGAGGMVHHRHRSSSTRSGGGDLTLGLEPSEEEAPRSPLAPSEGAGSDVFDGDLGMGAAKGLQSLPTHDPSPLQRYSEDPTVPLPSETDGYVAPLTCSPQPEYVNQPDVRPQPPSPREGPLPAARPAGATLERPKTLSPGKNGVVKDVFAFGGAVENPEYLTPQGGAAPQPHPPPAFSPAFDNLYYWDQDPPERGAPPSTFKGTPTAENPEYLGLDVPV
How it was run: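 BT-474 cells treated 4 h at 37 °C, 5% CO2 with four-fold dilutions (10 μM to 0.01 nM final). Lysates analysed by ELISA for pERBB2, TMB read at OD 450 nm. % relative activity normalised to no-cell (low) and 0.1% DMSO-treated (high) controls.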

Chain of Ba/F3 ERBB2 YVMA (P04626 with tags, fused parts or gaps DUP772-775): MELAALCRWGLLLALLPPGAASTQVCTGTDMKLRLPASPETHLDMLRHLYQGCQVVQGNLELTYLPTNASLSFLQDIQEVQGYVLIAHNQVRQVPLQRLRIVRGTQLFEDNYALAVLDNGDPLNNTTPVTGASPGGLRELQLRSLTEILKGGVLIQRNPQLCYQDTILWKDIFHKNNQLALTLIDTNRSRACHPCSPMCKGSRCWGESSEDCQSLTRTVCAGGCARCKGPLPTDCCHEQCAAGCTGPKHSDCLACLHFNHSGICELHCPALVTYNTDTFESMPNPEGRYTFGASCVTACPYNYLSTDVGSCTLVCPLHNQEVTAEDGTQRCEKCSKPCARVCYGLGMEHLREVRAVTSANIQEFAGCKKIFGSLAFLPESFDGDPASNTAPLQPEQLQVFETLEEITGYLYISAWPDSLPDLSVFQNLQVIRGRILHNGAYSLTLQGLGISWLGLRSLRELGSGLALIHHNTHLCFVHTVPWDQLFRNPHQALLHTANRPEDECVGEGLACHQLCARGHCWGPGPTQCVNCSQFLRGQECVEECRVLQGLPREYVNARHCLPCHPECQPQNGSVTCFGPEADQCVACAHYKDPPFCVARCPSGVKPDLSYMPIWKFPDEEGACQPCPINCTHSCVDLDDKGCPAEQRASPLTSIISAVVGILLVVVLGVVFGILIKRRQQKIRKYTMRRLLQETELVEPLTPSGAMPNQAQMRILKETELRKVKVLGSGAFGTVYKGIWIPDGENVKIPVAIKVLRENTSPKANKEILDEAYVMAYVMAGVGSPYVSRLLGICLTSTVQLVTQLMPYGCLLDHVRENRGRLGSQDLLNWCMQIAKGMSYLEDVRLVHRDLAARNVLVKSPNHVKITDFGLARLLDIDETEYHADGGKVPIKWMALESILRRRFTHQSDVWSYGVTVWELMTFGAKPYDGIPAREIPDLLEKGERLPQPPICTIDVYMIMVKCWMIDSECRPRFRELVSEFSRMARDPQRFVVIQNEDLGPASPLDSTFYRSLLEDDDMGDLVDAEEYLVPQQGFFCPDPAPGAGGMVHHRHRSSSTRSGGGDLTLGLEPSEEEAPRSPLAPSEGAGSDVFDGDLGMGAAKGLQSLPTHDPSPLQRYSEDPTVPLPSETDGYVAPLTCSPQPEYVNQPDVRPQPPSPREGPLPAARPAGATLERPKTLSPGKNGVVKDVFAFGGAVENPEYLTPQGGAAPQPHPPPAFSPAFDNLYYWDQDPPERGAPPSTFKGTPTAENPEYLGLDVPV

SMILES | IC50 [1] [nM] | IC50 [2] [nM] | GI50 (Ba/F3 ERBB2 YVMA) [nM]
CC#CC(=O)N1CCN(c2ccc3ncnc(Nc4ccc(Oc5ccc6c(c5)ncn6C)c(C)c4)c3n2)C[C@H]1C [Compound 65, 1-[(2R)-2-methyl-4-[4-({3-methyl-4-[(1-methyl-1,3-benzodiazol-5-yl)oxy]phenyl}amino)pyrido[3,2-d]pyrimidin-6-yl]piperazin-1-yl]but-2-yn-1-one] | 2790 | 29.3 | 4.38
C=CC(=O)N1CCN(c2ccc3ncnc(Nc4ccc(Cc5ccn6ncnc6c5)c(C)c4)c3n2)[C@@H](C)C1 [Compound 66, (S)-1-(4-(4-((4-([1,2,4]triazolo[1,5-a]pyridin-7-ylmethyl)-3-methylphenyl)amino)pyrido[3,2-d]pyrimidin-6-yl)-3-methylpiperazin-1-yl)prop-2-en-1-one] | 9020 | 18 | 12.5
C=CC(=O)N1CCN(c2ccc3ncnc(Nc4ccc(Oc5ccc6c(c5)ncn6C)c(C)c4)c3n2)[C@@H](C)C1 [Compound 67, 1-[(3S)-3-methyl-4-[4-({3-methyl-4-[(1-methyl-1,3-benzodiazol-5-yl)oxy]phenyl}amino)pyrido[3,2-d]pyrimidin-6-yl]piperazin-1-yl]prop-2-en-1-one] | 2490 | 28.2 | 13.9
C=CC(=O)N1CCN(c2ccc3ncnc(Nc4ccc(Cc5ccc6c(c5)ncn6C)c(C)c4)c3n2)[C@@H](C)C1 [Compound 68, (S)-1-(3-methyl-4-(4-((3-methyl-4-((1-methyl-1H-benzo[d]imidazol-5-yl)methyl)phenyl)amino)pyrido[3,2-d]pyrimidin-6-yl)piperazin-1-yl)prop-2-en-1-one] | 2570 | 44.8 | 14.7
C=CC(=O)N1CCN(c2cc3c(Nc4ccc(Oc5ccn6ncnc6c5)c(C)c4)ncnc3cn2)[C@@H](C)C1 [Compound 69, (S)-1-(4-(4-((4-([1,2,4]triazolo[1,5-a]pyridin-7-yloxy)-3-methylphenyl)amino)pyrido[3,4-d]pyrimidin-6-yl)-3-methylpiperazin-1-yl)prop-2-en-1-one] | > 10000 | 59.6 | 155
CC#CC(=O)N1CCN(c2ncc3ncnc(Nc4ccc(Oc5ccc6c(c5)ncn6C)c(C)c4)c3n2)C[C@H]1C [Compound 72, (R)-1-(2-methyl-4-(8-((3-methyl-4-((1-methyl-1H-benzo[d]imidazol-5-yl)oxy)phenyl)amino)pyrimido[5,4-d]pyrimidin-2-yl)piperazin-1-yl) but-2-yn-1-one] | 2680 | 67.9 | 10.1
CC#CC(=O)N1CC2CCC(C1)N2c1ccc2ncnc(Nc3ccc(Oc4ccc5c(c4)ncn5C)c(C)c3)c2n1 [Compound 75, 1-(8-(4-((3-methyl-4-((1-methyl-1H-benzo[d]imidazol-5-yl)oxy)phenyl)amino)pyrido[3,2-d]pyrimidin-6-yl)-3,8-diazabicyclo[3.2.1]octan-3-yl)but-2-yn-1-one] | 4060 | 42.3 | 8.19
C=CC(=O)N1CCN(c2ncc3ncnc(Nc4ccc(Cc5ccc6c(c5)ncn6C)c(C)c4)c3n2)[C@@H](C)C1 [Compound 77, 1-[(3S)-3-methyl-4-[8-({3-methyl-4-[(1-methyl-1,3-benzodiazol-5-yl)methyl]phenyl}amino)-[1,3]diazino[5,4-d]pyrimidin-2-yl]piperazin-1-yl]prop-2-en-1-one] | 3550 | 73.4 | 16.4
C=CC(=O)N1CCN(c2ccc3ncnc(Nc4ccc(Cc5ccc6c(c5)ncn6C)c(C)c4)c3c2F)C[C@H]1C [Compound 78, 1-[(2R)-4-[5-fluoro-4-({3-methyl-4-[(1-methyl-1,3-benzodiazol-5-yl)methyl]phenyl}amino)quinazolin-6-yl]-2-methylpiperazin-1-yl]prop-2-en-1-one] | 5130 | 70.4 | 22.6
C=CC(=O)N1CCN(c2ccc3ncnc(Nc4ccc(Cc5ccn6ncnc6c5)c(C)c4)c3c2F)C(C)C1 (stereo not drawn) [Compound 79, 1-(4-(4-((4-([1,2,4]triazolo[1,5-a]pyridin-7-ylmethyl)-3-methylphenyl)amino)-5-fluoroquinazolin-6-yl)-3-methylpiperazin-1-yl)prop-2-en-1-one] | > 10000 | 1600 | > 500
Cc1cc(Nc2ncnc3ccc(N4CCN(C(=O)/C=C/CN(C)C)[C@H](C)C4)nc23)ccc1Oc1ccc2c(c1)ncn2C [Compound 80, (2E)-4-(dimethylamino)-1-[(2R)-2-methyl-4-[4-({3-methyl-4-[(1-methyl-1,3-benzodiazol-5-yl)oxy]phenyl}amino)pyrido[3,2-d]pyrimidin-6-yl]piperazin-1-yl]but-2-en-1-one] | 2760 | 28.8 | 11.3
C=CC(=O)N1CCN(c2ccc3ncnc(Nc4ccc(Cc5ccn6ncnc6c5)c(C)c4)c3c2)CC1 [Compound 81, 1-(4-(4-((4-([1,2,4]triazolo[1,5-a]pyridin-7-ylmethyl)-3-methylphenyl)amino)quinazolin-6-yl)piperazin-1-yl)prop-2-en-1-one] | 2360 | 11 | 17.8
C=CC(=O)N1CCN(c2ncc3ncnc(Nc4ccc(Cc5ccc6c(c5)ncn6C)c(C)c4)c3n2)CC1 [Compound 84, 1-{4-[8-({3-methyl-4-[(1-methyl-1,3-benzodiazol-5-yl)methyl]phenyl}amino)-[1,3]diazino[5,4-d]pyrimidin-2-yl]piperazin-1-yl}prop-2-en-1-one] | > 10000 | 25.2 | 10.7
C=CC(=O)N1CCN(c2cc3c(Nc4ccc(Cc5ccn6ncnc6c5)c(C)c4)ncnc3cn2)[C@@H](C)C1 [Compound 85, (S)-1-(4-(4-((4-([1,2,4]triazolo[1,5-a]pyridin-7-ylmethyl)-3-methylphenyl)amino)pyrido[3,4-d]pyrimidin-6-yl)-3-methylpiperazin-1-yl)prop-2-en-1-one] | > 10000 | 47.7 | 69.7

More lines, main results first:

IC50 [1] [nM] | IC50 [2] [nM] | SMILES | GI50 (Ba/F3 ERBB2 YVMA) [nM]
2320 | 16.3 | C=CC(=O)N1CCN(c2ncc3ncnc(Nc4ccc(Oc5ccn6ncnc6c5)c(C)c4)c3n2)[C@@H](C)C1 [Compound 70, 1-[(3S)-3-methyl-4-{8-[(3-methyl-4-{[1,2,4]triazolo[1,5-a]pyridin-7-yloxy}phenyl)amino]pyrimido[5,4-d][1,3]diazin-2-yl}piperazin-1-yl]prop-2-en-1-one] | 9.96
1020 | 22 | CC#CC(=O)N1CCN(c2cc3c(Nc4ccc(Oc5ccc6c(c5)ncn6C)c(C)c4)ncnc3cn2)C[C@H]1C [Compound 71, 1-[(2R)-2-methyl-4-[4-({3-methyl-4-[(1-methyl-1,3-benzodiazol-5-yl)oxy]phenyl}amino)pyrido[3,4-d]pyrimidin-6-yl]piperazin-1-yl]but-2-yn-1-one] | 20.4
281 | 32.5 | C=CC(=O)N1CC2CCC(C1)N2c1ccc2ncnc(Nc3ccc(Oc4ccc5c(c4)ncn5C)c(C)c3)c2n1 [Compound 73, 1-{8-[4-({3-methyl-4-[(1-methyl-1,3-benzodiazol-5-yl)oxy]phenyl}amino)pyrido[3,2-d]pyrimidin-6-yl]-3,8-diazabicyclo[3.2.1]octan-3-yl}prop-2-en-1-one] | 29
1030 | 37.2 | C=CC(=O)N1C2CCC1CN(c1ccc3ncnc(Nc4ccc(Oc5ccc6c(c5)ncn6C)c(C)c4)c3n1)C2 [Compound 74, 1-(3-(4-((3-methyl-4-((1-methyl-1H-benzo[d]imidazol-5-yl)oxy)phenyl)amino)pyrido[3,2-d]pyrimidin-6-yl)-3,8-diazabicyclo[3.2.1]octan-8-yl)prop-2-en-1-one] | 27.9
2000 | 24.5 | C=CC(=O)N1CCN(c2ncc3ncnc(Nc4ccc(Oc5ccc6c(c5)ncn6C)c(C)c4)c3n2)[C@@H](C)C1 [Compound 76, 1-[(3S)-3-methyl-4-[8-({3-methyl-4-[(1-methyl-1,3-benzodiazol-5-yl)oxy]phenyl}amino)-[1,3]diazino[5,4-d]pyrimidin-2-yl]piperazin-1-yl]prop-2-en-1-one] | 10
2090 | 54.1 | C=CC(=O)N1CCN(c2ccc3ncnc(Nc4ccc(Cc5ccc6c(c5)ncn6C)c(C)c4)c3n2)CC1 [Compound 82, 1-{4-[4-({3-methyl-4-[(1-methyl-1,3-benzodiazol-5-yl)methyl]phenyl}amino)pyrido[3,2-d]pyrimidin-6-yl]piperazin-1-yl}prop-2-en-1-one] | 93.9
1390 | 25.5 | C=CC(=O)N1CCN(c2cc3c(Nc4ccc(Cc5ccc6c(c5)ncn6C)c(C)c4)ncnc3cn2)CC1 [Compound 83, 1-{4-[4-({3-methyl-4-[(1-methyl-1,3-benzodiazol-5-yl)methyl]phenyl}amino)pyrido[3,4-d]pyrimidin-6-yl]piperazin-1-yl}prop-2-en-1-one; formic acid] | 12.5

Source: patent US20250136595A1, “ACYLATED HETEROCYCLIC QUINAZOLINE DERIVATIVES AS INHIBITORS OF ERBB2” (Enliven Inc., priority 2022, published 2025)
